Test results: patent publication US20210169871A1, “PHARMACEUTICAL COMPOSITIONS WITH REDUCED TERT-BUTANOL LEVELS” (TARVEDA THERAPEUTICS, INC., priority 2018, published 2021)
Marks after values point to notes of the source that are not given here.

Experiments:
[1] = pH-dependent lactone / open ring carboxylic acid equilibrium in solution; format: physicochemical
Description: In solution, SDC-TRAP-0063 contains a lactone ring at pH-dependent equilibrium with the corresponding open chain carboxylic acid form. At high pH (above pH of around 9) the equilibrium shifts toward an open ring carboxylic acid form and at low pH it shifts toward the closed ring lactone form.
During the manufacturing process, SDC-TRAP-0063 is converted to SDC-TRAP-0063 Sodium, which is the dominant form at pH above approximately 9.3. SDC-TRAP-0063 Sodium drug product is aseptically manufactured as a sterile-filtered solution that is lyophilized. […] There is minimal impact from annealing or secondary drying modifications on TBA level in SDC-TRAP-0063 Sodium drug product.

[2] = Stability of SDC-TRAP-0063 sodium with added excipients
[3] = Residual TBA in lyophilized drug product by gas chromatography (GC-HS); format: physicochemical; parameters: key to Residual TBA: TBA weight percentage in dry powder
Experimental: SDC-TRAP-0063 synthesized in Example 1 was dissolved in an alkaline co-solvent system comprising 30% (by volume) tert-butanol (TBA) and water to obtain a drug solution. Various polyols, such as PEG, glycerol and propylene glycol (PG), were added to the drug solution in vials prior to the standard lyophilization cycle (freezing→annealing→primary drying→secondary drying). Dry powder drug products comprising SDC-TRAP-0063 sodium were obtained. TBA weight percentages in the dry powders were measured by gas chromatography (GC-HS) (Table 1).

[4] = pH, testing of lyophilized drug product; format: physicochemical
[5] = Residual moisture of lyophilized drug product; format: physicochemical; details: 100 mg/mL, 30% TBA, 4% PEG 400; Standard cycle (Table 2)
[6] = Residual TBA in lyophilized drug product by gas chromatography (GC-HS); format: physicochemical; parameters: key: TBA weight percentage in dry powder; details: 100 mg/mL
[7] = 100 mg/mL, 15% TBA, 3% PEG 400, NaOH 5.5 g/100 g (Table 3)
[8] = 100 mg/mL, 15% TBA, 6% Mannitol (Table 4)
[9] = 100 mg/mL, 30% TBA, 1% glycerol, standard lyophilization cycle (Table 1)
[10] = 100 mg/mL, 30% TBA, 2% PG, standard lyophilization cycle (Table 1)
[11] = 100 mg/mL, 30% TBA, 2% glycerol, standard lyophilization cycle (Table 1)
[12] = 100 mg/mL, 30% TBA, 3% PEG 400, NaOH 5.5 g/100 g (Table 3)
[13] = 100 mg/mL, 30% TBA, 3% PEG 400, standard lyophilization cycle (Table 1)
[14] = 100 mg/mL, 30% TBA, 3% glycerol, Standard cycle (Table 2)
[15] = 100 mg/mL, 30% TBA, 3.5% PEG 400, Standard cycle (Table 2)
[16] = 100 mg/mL, 30% TBA, 3.5% glycerol, Standard cycle (Table 2)
[17] = 100 mg/mL, 30% TBA, 4% PEG 400, BnOH 0.1 mg/vial, NaOH 5.5 g/100 g (Table 3)
[18] = 100 mg/mL, 30% TBA, 4% PEG 400, NaOH 5 g/100 g (Table 3)
[19] = 100 mg/mL, 30% TBA, 4% PEG 400, NaOH 5.5 g/100 g (Table 3)
[20] = 100 mg/mL, 30% TBA, 4% PEG 400, Standard cycle (Table 2)
[21] = 100 mg/mL, 30% TBA, 4% PEG 400, standard lyophilization cycle (Table 1)
[22] = 100 mg/mL, 30% TBA, 4% PEG 1000 (Table 4)
[23] = 100 mg/mL, 30% TBA, 4% PEG 2000 (Table 4)
[24] = 100 mg/mL, 30% TBA, 4% PEG 4000 (Table 4)
[25] = 100 mg/mL, 30% TBA, 4% PG, standard lyophilization cycle (Table 1)
[26] = 100 mg/mL, 30% TBA, 4% glycerol, Standard cycle (Table 2)
[27] = 100 mg/mL, 30% TBA, 4% glycerol, standard lyophilization cycle (Table 1)

CCc1c2c(nc3ccc(OC(=O)N4CCC(CCn5ccc6cc(-n7c(O)nnc7-c7cc(C(C)C)c(O)cc7O)ccc65)CC4)cc13)-c1cc([C@@](O)(CC)C(=O)[O-])c(CO)c(=O)n1C2.[Na+] [SDC-TRAP-0063 sodium, Sodium (S)-2-(2-((4-(2-(5-(3-(2,4-dihydroxy-5-isopropylphenyl)-5-hydroxy-4H-1,2,4-triazol-4-yl)-1H-indol-1-yl)ethyl)piperidine-1-carbonyl)oxy)-12-ethyl-8-(hydroxymethyl)-9-oxo-9,11-dihydroindolizino[1,2-b]quinolin-7-yl)-2-hydroxybutanoate]
pH above which SDC-TRAP-0063 Sodium is the dominant form ([1]; manufacturing process): approximately 9.3 | Stability with PEG-400 addition ([2]; PEG-400 added as excipient): no impact on the stability | Stability with propylene glycol addition ([2]; propylene glycol added as excipient): faster decay

CCc1c2c(nc3ccc(OC(=O)N4CCC(CCn5ccc6cc(-n7c(O)nnc7-c7cc(C(C)C)c(O)cc7O)ccc65)CC4)cc13)-c1cc3c(c(=O)n1C2)COC(=O)[C@]3(O)CC [SDC-TRAP-0063, (S)-4,11-diethyl-4-hydroxy-3,14-dioxo-3,4,12,14-tetrahydro-1H-pyrano[3′,4′:6,7]indolizino[1,2-b]quinolin-9-yl 4-(2-(5-(3-(2,4-dihydroxy-5-isopropylphenyl)-5-hydroxy-4H-1,2,4-triazol-4-yl)-1H-indol-1-yl)ethyl)piperidine-1-carboxylate]
Residual TBA [3, 7]: 3.3% | Residual TBA [3, 8]: 6.6% | Residual TBA ([3]; 100 mg/mL, 30% TBA, 0% PEG 400, 0% glycerol, Standard cycle, average (Table 2)): 7% avg | Residual TBA ([3]; 100 mg/mL, 30% TBA, 0% PEG 400, BnOH 0 mg/vial, NaOH 0 g/100 g, average (Table 3)): 7% avg | Residual TBA ([3]; 100 mg/mL, 30% TBA, 0% PEG 1000, 0% PEG 2000, 0% PEG 4000, 0% Mannitol, average (Table 4)): 7% avg | Residual TBA [3, 9]: 7.1% | Residual TBA [3, 10]: 4.1% | Residual TBA [3, 11]: 5.2% | Residual TBA [3, 12]: 4.1% | Residual TBA [3, 13]: 3.6% | Residual TBA [3, 14]: 3.8% | Residual TBA [3, 15]: 3.3% | Residual TBA [3, 16]: 3.3% | Residual TBA ([3]; 100 mg/mL, 30% TBA, 4% PEG 400, 5% Mannitol (Table 5)): 0.54 | Residual TBA ([3]; 100 mg/mL, 30% TBA, 4% PEG 400, 7.5% Mannitol (Table 5)): 1.36 | Residual TBA ([3]; 100 mg/mL, 30% TBA, 4% PEG 400, 10% Mannitol (Table 5)): 2.22 | Residual TBA [3, 17]: 2.4% | Residual TBA [3, 18]: 1.9% | Residual TBA [3, 19]: 2.2% | Residual TBA [3, 20]: 2.7% | Residual TBA [3, 21]: 2.0% | Residual TBA [3, 22]: 2.3% | Residual TBA [3, 23]: 2.2% | Residual TBA [3, 24]: 2.3% | Residual TBA [3, 25]: 1.5% | Residual TBA [3, 26]: 1.8% | Residual TBA [3, 27]: 1.2% | Residual TBA ([3]; 100 mg/mL, 30% TBA, 5% PEG 400, 5% Mannitol (Table 5)): 0.11 | Residual TBA ([3]; 100 mg/mL, 30% TBA, 5% PEG 400, 7.5% Mannitol (Table 5)): 0.26 | Residual TBA ([3]; 100 mg/mL, 30% TBA, 5% PEG 400, 10% Mannitol (Table 5)): 0.74 | Residual TBA ([3]; 100 mg/mL, 30% TBA, 6% PEG 400, 5% Mannitol (Table 5), below the limit of quantitation of the method): 0.05* | Residual TBA ([3]; 100 mg/mL, 30% TBA, 6% PEG 400, 7.5% Mannitol (Table 5), below the limit of quantitation of the method): 0.09* | Residual TBA ([3]; 100 mg/mL, 30% TBA, 6% PEG 400, 10% Mannitol (Table 5)): 0.16 | Residual TBA with 4% PEG-400 ([3]; 4% of PEG-400): 2.5-2.7% | Residual TBA ([3]; pre-lyophilization solution 100 mg/mL, 30% TBA, 0% PEG 400, 0% glycerol, 0% PG, standard lyophilization cycle, average): 7% avg | pH [4, 7]: 10.0 | pH ([4]; 100 mg/mL, 15% TBA, 4% Mannitol (Table 4)): 9.8 | pH [4, 8]: 9.8 | pH ([4]; 100 mg/mL, 30% TBA, 0% PEG 400, 0% glycerol, Standard cycle (Table 2)): 10.1-10.3 | pH ([4]; 100 mg/mL, 30% TBA, 0% PEG 400, BnOH 0 mg/vial, NaOH 0 g/100 g (Table 3)): 10.1-10.3 | pH ([4]; 100 mg/mL, 30% TBA, 0% PEG 1000, 0% PEG 2000, 0% PEG 4000, 0% Mannitol (Table 4)): 10.1-10.3 | pH [4, 9]: 10.2 | pH [4, 10]: 10.2 | pH [4, 11]: 10.2 | pH [4, 12]: 9.9 | pH [4, 13]: 10.1 | pH ([4]; 100 mg/mL, 30% TBA, 3% glycerol, No secondary drying (Table 2)): 10.1 | pH [4, 14]: 10.1 | pH ([4]; 100 mg/mL, 30% TBA, 3.5% PEG 400, No secondary drying (Table 2)): 10.1 | pH [4, 15]: 10.0 | pH [4, 16]: 10.1 | pH [4, 17]: 10.0 | pH [4, 18]: 9.5 | pH [4, 19]: 9.9 | pH [4, 20]: 10.1 | pH [4, 21]: 10.1 | pH [4, 22]: 9.7 | pH [4, 23]: 9.9 | pH [4, 24]: 9.8 | pH [4, 25]: 10.1 | pH [4, 26]: 10.1 | pH [4, 27]: 10.2 | pH ([4]; pre-lyophilization solution 100 mg/mL, 30% TBA, 0% PEG 400, 0% glycerol, 0% PG, standard lyophilization cycle): 10.1-10.3 | Residual Moisture [5]: 0.26% | pH above which equilibrium shifts toward open ring carboxylic acid form [1]: around 9 | Residual TBA ([6]; 15% TBA, 4% Mannitol (Table 4)): 6.0% | Residual TBA ([6]; 30% TBA, 3% glycerol, No secondary drying (Table 2)): 4.0% | Residual TBA ([6]; 30% TBA, 3.5% PEG 400, No secondary drying (Table 2)): 3.2% | Solubility in water (Solubility in water): does not have good solubility in water | Stability profile with 4% PEG-400 ([2]; 4% of PEG-400): stability profile is acceptable | Stability profile with glycerol as excipient ([2]; glycerol as excipient, compared with PEG-400): slightly worse stability profile
